Laboratory results reported in ChEMBL document CHEMBL3046912, “Effectiveness of 1,3-dichloropropene as an alternative to methyl bromide in rotations of tomato (Solanum lycopersicum) and cucumber (Cucumis sativus) in China” (2012).
Calls of active or inactive are those of the source. The calls are words filed in the database; no cut-off is given here.

Columns and labels:
Solanum lycopersicum [1] = assay: Increase in plant height of Solanum lycopersicum (tomato) exposed to 400 kg/ha compound fumigation treatment measured 30 days after compound treatment (reference value: 28.4 cm); format: functional
Solanum lycopersicum [2] = assay: Increase in plant height of Solanum lycopersicum (tomato) exposed to 400 kg/ha compound fumigation treatment measured 50 days after compound treatment (reference value: 86.2 cm); format: functional
Cucumis sativus [3] = assay: Increase in plant height of Cucumis sativus (cucumber) exposed to 400 kg/ha compound fumigation treatment measured 30 days after compound treatment (reference value: 85.6 cm); format: functional
Cucumis sativus [4] = assay: Increase in plant height of Cucumis sativus (cucumber) exposed to 400 kg/ha compound fumigation treatment measured 50 days after compound treatment (reference value: 103.2 cm); format: functional
Capsella bursa-pastoris [5] = assay: Herbicidal activity against Capsella bursa-pastoris in tomato plants fields exposed to 400 kg/ha compound fumigation treatment assessed as hand weeding time per plot relative to untreated control; format: functional
Capsella bursa-pastoris [6] = assay: Herbicidal activity against Capsella bursa-pastoris in cucumber plants fields exposed to 400 kg/ha compound fumigation treatment assessed as hand weeding time per plot relative to untreated control; format: functional
Digitaria sanguinalis [7] = assay: Herbicidal activity against Digitaria sanguinalis (hairy crabgrass) in tomato plants fields exposed to 400 kg/ha compound fumigation treatment assessed as hand weeding time per plot relative to untreated control; format: functional
Arenaria serpyllifolia [8] = assay: Herbicidal activity against Arenaria serpyllifolia in cucumber plants fields exposed to 400 kg/ha compound fumigation treatment assessed as hand weeding time per plot (reference value: 258.3 hr/ha); format: functional
Digitaria sanguinalis [9] = assay: Herbicidal activity against Digitaria sanguinalis (hairy crabgrass) in cucumber plants fields exposed to 400 kg/ha compound fumigation treatment assessed as hand weeding time per plot (reference value: 258.3 hr/ha); format: functional
Capsella bursa-pastoris [10] = assay: Herbicidal activity against Capsella bursa-pastoris in cucumber plants fields exposed to 400 kg/ha compound fumigation treatment assessed as hand weeding time per plot (reference value: 258.3 hr/ha); format: functional
Botrytis cinerea = assay: Fungicidal activity against Botryotinia fuckeliana-induced withering in tomato plants at 400 kg/ha measured 20 to 60 days post compound treatment; format: functional, organism-based
Meloidogyne incognita [11] = assay: Nematicidal activity against Meloidogyne incognita (root-knot nematode) in cucumber growing fields exposed to 400 kg/ha compound fumigation treatment assessed as root galling index measured 20 days after compound treatment (reference value: 8.72 root galling index); format: functional
Solanum lycopersicum [12] = assay: Increase in crop yield in Cucumis sativus (cucumber) plants exposed to 400 kg/ha compound fumigation treatment assessed as marketable yield fruit yield (reference value: 65.3 ton/ha); format: functional
Arenaria serpyllifolia [13] = assay: Herbicidal activity against Arenaria serpyllifolia in tomato plants fields exposed to 400 kg/ha compound fumigation treatment assessed as hand weeding time per plot (reference value: 243.3 hr/ha); format: functional
Digitaria sanguinalis [14] = assay: Herbicidal activity against Digitaria sanguinalis (hairy crabgrass) in tomato plants fields exposed to 400 kg/ha compound fumigation treatment assessed as hand weeding time per plot (reference value: 243.3 hr/ha); format: functional
Capsella bursa-pastoris [15] = assay: Herbicidal activity against Capsella bursa-pastoris in tomato plants fields exposed to 400 kg/ha compound fumigation treatment assessed as hand weeding time per plot (reference value: 243.3 hr/ha); format: functional
Phytophthora melonis = assay: Fungicidal activity against Phytophthora melonis-induced blight disease in cucumber plants at 400 kg/ha measured 20 to 60 days post compound treatment; format: functional, organism-based
Meloidogyne incognita [16] = assay: Nematicidal activity against Meloidogyne incognita (root-knot nematode) in tomato growing fields exposed to 400 kg/ha compound fumigation treatment assessed as root galling index measured 20 days after compound treatment (reference value: 8.51 root galling index); format: functional
Solanum lycopersicum [17] = assay: Increase in crop yield in Solanum lycopersicum (tomato) plants exposed to 400 kg/ha compound fumigation treatment assessed as marketable yield fruit yield (reference value: 51.3 ton/ha); format: functional
Arenaria serpyllifolia [18] = assay: Herbicidal activity against Arenaria serpyllifolia in cucumber plants fields exposed to 400 kg/ha compound fumigation treatment assessed as hand weeding time per plot relative to untreated control; format: functional
Digitaria sanguinalis [19] = assay: Herbicidal activity against Digitaria sanguinalis (hairy crabgrass) in cucumber plants fields exposed to 400 kg/ha compound fumigation treatment assessed as hand weeding time per plot relative to untreated control; format: functional
Arenaria serpyllifolia [20] = assay: Herbicidal activity against Arenaria serpyllifolia in tomato plants fields exposed to 400 kg/ha compound fumigation treatment assessed as hand weeding time per plot relative to untreated control; format: functional
Solanum lycopersicum [21] = assay: Increase in crop yield in Cucumis sativus (cucumber) plants exposed to 400 kg/ha compound fumigation treatment assessed as medium fruit yield (reference value: 38.6 ton/ha); format: functional
Solanum lycopersicum [22] = assay: Increase in crop yield in Solanum lycopersicum (tomato) plants exposed to 400 kg/ha compound fumigation treatment assessed as medium fruit yield (reference value: 32.3 ton/ha); format: functional
Solanum lycopersicum [23] = assay: Increase in crop yield in Cucumis sativus (cucumber) plants exposed to 400 kg/ha compound fumigation treatment assessed as large fruit yield (reference value: 19.5 ton/ha); format: functional
Solanum lycopersicum [24] = assay: Increase in crop yield in Solanum lycopersicum (tomato) plants exposed to 400 kg/ha compound fumigation treatment assessed as large fruit yield (reference value: 15.2 ton/ha); format: functional
Solanum lycopersicum [25] = assay: Increase in crop yield in Cucumis sativus (cucumber) plants exposed to 400 kg/ha compound fumigation treatment assessed as extra-large fruit yield (reference value: 7.2 ton/ha); format: functional
Solanum lycopersicum [26] = assay: Increase in crop yield in Solanum lycopersicum (tomato) plants exposed to 400 kg/ha compound fumigation treatment assessed as extra-large fruit yield (reference value: 3.8 ton/ha); format: functional

Q: With `CBr` [BROMOMETHANE] as the compound, how does the Activity (Solanum lycopersicum [1]) read?
A: 43.5 cm

Q: And the Activity (Solanum lycopersicum [2])?
A: 118.7 cm

Q: And the Activity (Cucumis sativus [3])?
A: 108.6 cm

Q: What about the Activity (Cucumis sativus [4]) of the same compound?
A: 132.6 cm

Q: What about the Activity (Capsella bursa-pastoris [5]) of the same compound?
A: 45%

Q: And the Activity (Capsella bursa-pastoris [6])?
A: 45%

Q: And the Activity (Digitaria sanguinalis [7])?
A: 45%

Q: What about the Time (Arenaria serpyllifolia [8]) of the same compound?
A: 41.9 hr/ha

Q: What about the Time (Digitaria sanguinalis [9]) of the same compound?
A: 41.9 hr/ha

Q: What about the Time (Capsella bursa-pastoris [10]) of the same compound?
A: 41.9 hr/ha

Q: What about the Activity (Botrytis cinerea) of the same compound?
A: Active

Q: And the Root_galling_index (Meloidogyne incognita [11])?
A: 3.24

Q: And the Crop_yield (Solanum lycopersicum [12])?
A: 101.9 tons/ha

Q: And the Time (Arenaria serpyllifolia [13])?
A: 35.2 hr/ha

Q: And the Time (Digitaria sanguinalis [14])?
A: 35.2 hr/ha

Q: What about the Time (Capsella bursa-pastoris [15]) of the same compound?
A: 35.2 hr/ha

Q: What about the Activity (Phytophthora melonis) of the same compound?
A: Active

Q: And the Root_galling_index (Meloidogyne incognita [16])?
A: 3.54

Q: What about the Crop_yield (Solanum lycopersicum [17]) of the same compound?
A: 76.6 tons/ha

Q: And the Activity (Arenaria serpyllifolia [18])?
A: 45%

Q: What about the Activity (Digitaria sanguinalis [19]) of the same compound?
A: 45%

Q: And the Activity (Arenaria serpyllifolia [20])?
A: 45%

Q: What about the Crop_yield (Solanum lycopersicum [21]) of the same compound?
A: 55.3 tons/ha

Q: And the Crop_yield (Solanum lycopersicum [22])?
A: 46.6 tons/ha

Q: And the Crop_yield (Solanum lycopersicum [23])?
A: 32.3 tons/ha

Q: And the Crop_yield (Solanum lycopersicum [24])?
A: 21.7 tons/ha

Q: What about the Crop_yield (Solanum lycopersicum [25]) of the same compound?
A: 14.3 tons/ha

Q: What about the Crop_yield (Solanum lycopersicum [26]) of the same compound?
A: 8.3 tons/ha
